Data set [1] addresses T1, Alpha-1A adrenergic receptor (Homo sapiens, UniProt P35348).
T1 sequence (P35348 whole entry): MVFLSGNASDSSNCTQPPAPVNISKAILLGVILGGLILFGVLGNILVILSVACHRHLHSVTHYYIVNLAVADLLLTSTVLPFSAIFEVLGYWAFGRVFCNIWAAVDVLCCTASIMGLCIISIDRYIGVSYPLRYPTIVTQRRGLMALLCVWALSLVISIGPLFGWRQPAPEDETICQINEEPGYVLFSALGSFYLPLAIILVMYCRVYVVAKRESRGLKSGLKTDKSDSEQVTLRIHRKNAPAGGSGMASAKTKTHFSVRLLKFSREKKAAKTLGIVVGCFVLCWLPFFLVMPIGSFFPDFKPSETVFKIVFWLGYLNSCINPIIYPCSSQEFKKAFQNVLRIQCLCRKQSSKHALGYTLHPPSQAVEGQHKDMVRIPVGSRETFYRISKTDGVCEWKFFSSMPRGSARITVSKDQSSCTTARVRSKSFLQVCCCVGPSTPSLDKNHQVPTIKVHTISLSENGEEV
In words: Displacement of [3H]prazosin from human adrenergic alpha1A receptor expressed in LMtk- cells. Format: cell-based.

For data set [2], the system named is Rattus norvegicus. Briefly: Plasma clearance in Sprague-Dawley rat at 1 mg/kg, iv. To be noted: in vivo. It is filed as ADME, organism-based. Further details: dose 1 mg/kg, route intravenous.
Data set [3] in a line: AUC (0 to infinity) in Sprague-Dawley rat at 3 mg/kg, po. Format: ADME, organism-based. To be noted: plasma. Further details: time infinity, dose 3 mg/kg, route oral.
Data set [4] is described as follows: Volume of distribution at steady state in Sprague-Dawley rat at 1 mg/kg, iv. It is filed as ADME, organism-based. More on the design: dose 1 mg/kg, route intravenous. The conditions noted are these: in vivo, read-out: Vdss.
The next data set has as its system Brain. In words: Drug level in Sprague-Dawley rat brain at 10 mg/kg, po. The conditions noted are these: in vivo. Further details: dose 10 mg/kg, route oral. Format: ADME, organism-based.
A short description of data set [5]: Cmax in Sprague-Dawley rat at 3 mg/kg, po. To be noted: in vivo. Format: ADME, organism-based. Further details: dose 3 mg/kg, route oral.
Data set [6] is described as follows: Oral bioavailability in Sprague-Dawley rat. It is filed as ADME, organism-based. The conditions noted are these: in vivo.
In data set [7] the test system is Rattus norvegicus. Briefly: Plasma concentration in Sprague-Dawley rat at 10 mg/kg, po. More on the design: dose 10 mg/kg, route oral. The conditions noted are these: in vivo. It is filed as ADME, organism-based.
Data set [8] can be described thus: Half life in Sprague-Dawley rat at 1 mg/kg, iv. More on the design: dose 1 mg/kg, route intravenous. The conditions noted are these: in vivo. Format: ADME, organism-based.
The next data set deals with Histamine H2 receptor (Homo sapiens, UniProt P25021). In words: Inhibition of human histamine H2 receptor.
A further data set concerns the target Histamine H1 receptor (Homo sapiens, UniProt P35367). In words: Inhibition of human histamine H1 receptor.
In data set [9] the test system is Rattus norvegicus. Briefly: Increase in tele-methylhistamine level in po dosed Sprague-Dawley rat brain. Format: functional, organism-based.
In a further data set the target is Histamine H4 receptor (Homo sapiens, UniProt Q9H3N8). Briefly: Inhibition of human histamine H4 receptor.

The structures appear in SMILES notation. Bounds are passed on as bounds.

Histamine H4 receptor, sequence (Q9H3N8 whole entry): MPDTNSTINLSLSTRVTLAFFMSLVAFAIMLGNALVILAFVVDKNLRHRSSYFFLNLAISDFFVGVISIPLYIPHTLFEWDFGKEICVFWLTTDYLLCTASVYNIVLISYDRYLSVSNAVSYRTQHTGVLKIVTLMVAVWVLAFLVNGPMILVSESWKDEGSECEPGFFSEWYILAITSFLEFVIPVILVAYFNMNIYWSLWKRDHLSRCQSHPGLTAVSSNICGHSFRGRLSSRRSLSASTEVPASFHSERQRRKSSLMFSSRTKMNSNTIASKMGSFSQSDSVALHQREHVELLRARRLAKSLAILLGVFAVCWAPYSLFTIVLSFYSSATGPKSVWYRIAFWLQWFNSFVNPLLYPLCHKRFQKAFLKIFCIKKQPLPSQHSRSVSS
Histamine H1 receptor, sequence (P35367 whole entry): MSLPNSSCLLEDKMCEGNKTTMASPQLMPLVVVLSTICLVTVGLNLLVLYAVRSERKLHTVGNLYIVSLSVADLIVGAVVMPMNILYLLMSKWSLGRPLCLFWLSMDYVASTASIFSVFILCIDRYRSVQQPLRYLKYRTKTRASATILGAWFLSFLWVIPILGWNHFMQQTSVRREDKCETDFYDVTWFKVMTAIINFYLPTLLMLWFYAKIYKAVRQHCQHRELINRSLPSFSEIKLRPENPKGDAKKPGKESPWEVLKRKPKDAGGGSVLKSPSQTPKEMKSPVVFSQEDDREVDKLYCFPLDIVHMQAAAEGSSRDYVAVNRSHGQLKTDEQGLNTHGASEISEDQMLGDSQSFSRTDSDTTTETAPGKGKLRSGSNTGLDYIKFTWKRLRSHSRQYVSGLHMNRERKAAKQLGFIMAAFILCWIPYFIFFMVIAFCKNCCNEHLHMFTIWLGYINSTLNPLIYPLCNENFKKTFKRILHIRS
Histamine H2 receptor, sequence (P25021 whole entry): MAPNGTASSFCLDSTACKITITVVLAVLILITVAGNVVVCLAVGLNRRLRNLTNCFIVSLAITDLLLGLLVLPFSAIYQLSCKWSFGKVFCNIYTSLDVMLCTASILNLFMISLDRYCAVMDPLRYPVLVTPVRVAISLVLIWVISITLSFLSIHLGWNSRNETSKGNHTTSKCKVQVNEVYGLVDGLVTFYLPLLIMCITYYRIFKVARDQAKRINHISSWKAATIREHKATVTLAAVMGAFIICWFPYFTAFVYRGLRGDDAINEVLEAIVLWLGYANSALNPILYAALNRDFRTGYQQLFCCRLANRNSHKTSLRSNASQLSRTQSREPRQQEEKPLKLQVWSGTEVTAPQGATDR

For the compound `Cn1c(-c2ccc(OC3CCN(C4CCC4)CC3)cc2)nc2c(F)cccc2c1=O`, the IC50 in data set [1] was 4.5 µM.

Turning to `COc1cccc2nc(-c3ccc(OC4CCN(C5CCC5)CC4)cc3)n(C)c(=O)c12`, in data set [1], the IC50 amounted to 4.2 µM.

For `Cn1c(-c2ccc(OCCCN3CCCCC3)cc2)nc2ccccc2c1=O`, in data set [1], the IC50 was found to be 2.9 µM.

As for `COc1cccc2c(=O)n(C)c(-c3ccc(OC4CCN(C5CCC5)CC4)cc3)nc12`, the IC50 in data set [1] is over 10 µM.

Take `CCn1c(-c2ccc(OCCCN3CCCCC3)cc2)nc2ccccc2c1=O`: in data set [1], the IC50 was 1.3 µM.

Compound `Cn1c(-c2ccc(OCCCN3CCCC3)cc2)nc2ccccc2c1=O` had an IC50 in data set [1] of 2.2 µM.

Take `Cc1nc2ccccc2c(=O)n1-c1ccc(OCCCN2CCCCC2)cc1`: the IC50 in [1] was 6.5 µM.

For the compound `COc1nccc2c(=O)n(C)c(-c3ccc(OC4CCN(C5CCC5)CC4)cc3)nc12`, the IC50 (in [1]; at Histamine H2 receptor; at Histamine H1 receptor; at Histamine H4 receptor) was over 10 µM each time. This compound returned a clearance in the data set with Rattus norvegicus [2] of 29 mL/min/kg. For the same compound, in data set [3], the AUC(0-inf) is 2.1 µM·h. The Vd in data set [4] was 4.8 L/kg. In addition, the Drug uptake in the data set with Brain was determined as 2.96 nmol/g. Moreover, the Cmax in data set [5] was 570 nM. The compound also yielded a bioavailability in data set [6] of 48%. The compound further returned a concentration with Rattus norvegicus [7] of 2080 nM. The same compound gave a half-life in [8] of 120 min. For the same compound, the Activity entry in the data set with Rattus norvegicus [9] is “Dose-dependent effect”.

`Cn1c(-c2ccc(OC3CCN(C4CCC4)CC3)cc2)nc2c(C(F)(F)F)cccc2c1=O` had an IC50 in data set [1] of over 10 µM.

The compound `Cn1c(-c2ccc(OC3CCN(C4CCCC4)CC3)cc2)nc2ccccc2c1=O` had an IC50 in data set [1] of 6.2 µM.

As to `O=c1c2ccccc2nc(-c2ccc(OCCCN3CCCCC3)cc2)n1-c1ccccc1`, the IC50 in data set [1] came to 2.4 µM.

`COc1ccc2c(=O)n(C)c(-c3ccc(OC4CCN(C5CCC5)CC4)cc3)nc2c1` had an IC50 in [1] of over 10 µM.

For `Cc1cccc2c(=O)n(C)c(-c3ccc(OC4CCN(C5CCC5)CC4)cc3)nc12`, the IC50 in data set [1] was determined as 10 µM.

As for `Cn1c(-c2ccc(OC3CCN(C4CCC4)CC3)cc2)nc2c(Cl)cccc2c1=O`, the IC50 in data set [1] is 6.5 µM.

In data set [1], `COc1ccc2nc(-c3ccc(OC4CCN(C5CCC5)CC4)cc3)n(C)c(=O)c2c1` had an IC50 of 5.9 µM.

In data set [1], `Cn1c(-c2ccc(OC3CCN(C4CCC4)CC3)cc2)nc2ccccc2c1=O` yielded an IC50 of 6.3 µM.

For the compound `O=c1c2ccccc2nc(-c2ccc(OCCCN3CCCCC3)cc2)n1Cc1ccccc1`, the half-inhibitory concentration (IC50) in data set [1] amounted to 7.2 µM.

By IC50 is commonly meant the midpoint of a concentration-inhibition curve. Higher therefore signals lower potency. As usually defined, the clearance is a measure of how efficiently the substance is removed, as volume per time. Higher therefore signals efficient removal. The AUC(0-inf) is total exposure, with the tail of the curve extrapolated. Lower therefore signals low exposure. In general, Cmax refers to the maximum level reached in the sampled fluid or tissue. In general, bioavailability refers to dose-corrected exposure relative to a reference, in per cent. Higher therefore signals much systemic uptake. What is called half-life is how long it takes for the measured level to halve. Higher therefore signals slow loss.
